Laboratory results: the NIST ThermoML archive (doi:10.1016/j.jct.2013.05.046)

How the values were obtained:
[1] = xn = mol fraction of the nth substance listed; conditions: 101 kPa, Liquid, Cone and plate viscometry, x2 = 0.8
[2] = refractive index (Na D-line) (dimensionless); xn = mol fraction of the nth substance listed; conditions: 101 kPa, Liquid, Standard Abbe refractometry, x2 = 0.8

CC[P+](c1ccccc1)(c1ccccc1)c1ccccc1.[I-] [ethyltriphenylphosphonium iodide] + O=S1(=O)CCCC1
Conditions	refractive index, 298.15 K	refractive index, 303.15 K	refractive index, 313.15 K	refractive index, 323.15 K	refractive index, 333.15 K	viscosity, 298.15 K [mPa·s]	viscosity, 308.15 K [mPa·s]	viscosity, 318.15 K [mPa·s]	viscosity, 328.15 K [mPa·s]	viscosity, 338.15 K [mPa·s]
[1]	–	–	–	–	–	95.03	52.14	24.15	15.24	9.578
[2]	1.516	1.5142	1.5104	1.5069	1.5033	–	–	–	–	–
